According to ChEMBL document CHEMBL1151007, “Synthesis and in vitro cytotoxicity of (RS)-20-desethyl-20-substituted camptothecin analogues” (Bioorg Med Chem Lett, 1996):

What was measured:
Assay type in all cases: functional, cell-based
A 172 = assay: In vitro cytotoxicity against A172 human tumor cell lines.
Caov-3 cell line = assay: In vitro cytotoxicity against CAOV-3 human tumor cell line.
DLD-1 = assay: In vitro cytotoxicity against DLD-1 human tumor cell lines.
[1] = test system: KATO III stomach cancer cell line; assay: In vitro cytotoxicity against KATO-III human tumor cell line.
L1210 = assay: In vitro cytotoxicity against L1210 mouse leukemia tumor cell line.

SMILES	IC50 (A 172) [µM]	IC50 (Caov-3 cell line) [µM]	IC50 (DLD-1) [µM]	IC50 [1] [µM]	IC50 (L1210) [µM]
O=C(Nc1ccccc1)OCCC1(O)C(=O)OCc2c1cc1n(c2=O)Cc2cc3ccccc3nc2-1 (stereo not given)	0.06	3.72	1.2	5.38	6.87
COCCOCOCCC1(O)C(=O)OCc2c1cc1n(c2=O)Cc2cc3ccccc3nc2-1 (stereo not given)	4.04	1.92	15.1	53	4.97
O=C(Nc1ccccc1)OCC1(O)C(=O)OCc2c1cc1n(c2=O)Cc2cc3ccccc3nc2-1 (stereo not given)	2.77	1.58	4.24	13.1	2.77
CC(C)NC(=O)OCC1(O)C(=O)OCc2c1cc1n(c2=O)Cc2cc3ccccc3nc2-1 (stereo not given)	11.2	22.5	23.4	72.3	5.97
CC(C)NC(=O)OCCC1(O)C(=O)OCc2c1cc1n(c2=O)Cc2cc3ccccc3nc2-1 (stereo not given)	5.25	1.42	11	46.5	9.41
CCOCOCCC1(O)C(=O)OCc2c1cc1n(c2=O)Cc2cc3ccccc3nc2-1 (stereo not given)	1.37	1.85	1.07	19.3	1.42
COCC(=O)OCC1(O)C(=O)OCc2c1cc1n(c2=O)Cc2cc3ccccc3nc2-1 (stereo not given)	17.6	12.9	47.1	> 100	13.6
COCC(=O)OCCC1(O)C(=O)OCc2c1cc1n(c2=O)Cc2cc3ccccc3nc2-1 (stereo not given)	6.99	6.39	31.8	3.05	24.5
COCCOCOCC1(O)C(=O)OCc2c1cc1n(c2=O)Cc2cc3ccccc3nc2-1 (stereo not given)	4.38	6	25.8	83.5	22.2
CC(=O)OCC1(O)C(=O)OCc2c1cc1n(c2=O)Cc2cc3ccccc3nc2-1 (stereo not given)	1.53	0.82	1.22	9.43	1.71
CC(=O)OCCC1(O)C(=O)OCc2c1cc1n(c2=O)Cc2cc3ccccc3nc2-1 (stereo not given)	3.99	4.23	7.04	0.98	5.09
CCOCOCC1(O)C(=O)OCc2c1cc1n(c2=O)Cc2cc3ccccc3nc2-1 (stereo not given)	11.1	17.6	17.1	40.7	3.4
COCOCC1(O)C(=O)OCc2c1cc1n(c2=O)Cc2cc3ccccc3nc2-1 (stereo not given)	8.39	4	2.41	23.2	1.65
O=C1OCc2c(cc3n(c2=O)Cc2cc4ccccc4nc2-3)C1(O)CO (stereo not given)	7.19	2.17	17.8	11.5	3.97
O=C1OCc2c(cc3n(c2=O)Cc2cc4ccccc4nc2-3)C1(O)CCO (stereo not given)	4.47	6.31	2.5	9.72	6.31
